This passage reports IC50 results from patent publication US20240101576A1, “HETEROCYCLIC INHIBITORS OF EGFR AND/OR HER2, FOR USE IN THE TREATMENT OF CANCER” (Scorpion Therapeutics, Inc., priority 2020, published 2024).

Usually IC50 stands for the concentration that gives 50% inhibition.

What all share (format): cell-based
Assay [1] addresses T1, EGFR exon 20 ASV Ins V769_D770 (Ba/F3 cells) (Homo sapiens, UniProt P00533, INS769ASV).
T1 construct: expressed in transfected cells; host or cells: Ba/F3 (murine pro-B cells), retroviral transduction, puromycin selection, IL3-independent pool
Briefly: Inhibitor activity on EGFR phosphorylation (pEGFR AlphaLISA, 2 h), Ba/F3 EGFR exon 20 ASV Ins. Particulars: EGFR phosphorylation, AlphaLISA, 2 hours; read-out: ASV IC50 (pEGFR). The essentials: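 Cellular EGFR autophosphorylation assay. IL3-independent Ba/F3 transductants or CUTO14 cells are incubated with serially diluted compound (3-fold, 10 points) for 2 h, then lysed and pEGFR quantified by AlphaLISA.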
(Alpha assays give light when donor and acceptor beads are brought close together.)

In assay [2] the target is T1, EGFR exon 20 ASV Ins V769_D770 (Ba/F3 cells). Briefly: Inhibitor activity on EGFR-dependent cell growth (CellTiter-Glo, 72 h), Ba/F3 EGFR exon 20 ASV Ins. The settings on record: read-out: BaF3 ASV IC50. An outline of the steps: (§1)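 IC50s derive from a sigmoidal dose–response fit of CellTiter-Glo signal. The signal was normalised between […]-treated cells and cell-free medium. Ba/F3 mutant-EGFR cells, seeded at 400–800/well depending on the line, had 72 h of exposure to a 10-point, 3-fold compound series.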
(In ATP-based viability assays light output follows the ATP content of the culture.)

The target in assay [3] is T2, EGFR exon 20 NPG Ins D770_N771 (Ba/F3 cells) (Homo sapiens, UniProt P00533, INS770NPG).
T2 construct: expressed in transfected cells; host or cells: Ba/F3 (murine pro-B cells), retroviral transduction, puromycin selection, IL3-independent pool
T2 sequence (P00533 with tags, fused parts or gaps INS770NPG): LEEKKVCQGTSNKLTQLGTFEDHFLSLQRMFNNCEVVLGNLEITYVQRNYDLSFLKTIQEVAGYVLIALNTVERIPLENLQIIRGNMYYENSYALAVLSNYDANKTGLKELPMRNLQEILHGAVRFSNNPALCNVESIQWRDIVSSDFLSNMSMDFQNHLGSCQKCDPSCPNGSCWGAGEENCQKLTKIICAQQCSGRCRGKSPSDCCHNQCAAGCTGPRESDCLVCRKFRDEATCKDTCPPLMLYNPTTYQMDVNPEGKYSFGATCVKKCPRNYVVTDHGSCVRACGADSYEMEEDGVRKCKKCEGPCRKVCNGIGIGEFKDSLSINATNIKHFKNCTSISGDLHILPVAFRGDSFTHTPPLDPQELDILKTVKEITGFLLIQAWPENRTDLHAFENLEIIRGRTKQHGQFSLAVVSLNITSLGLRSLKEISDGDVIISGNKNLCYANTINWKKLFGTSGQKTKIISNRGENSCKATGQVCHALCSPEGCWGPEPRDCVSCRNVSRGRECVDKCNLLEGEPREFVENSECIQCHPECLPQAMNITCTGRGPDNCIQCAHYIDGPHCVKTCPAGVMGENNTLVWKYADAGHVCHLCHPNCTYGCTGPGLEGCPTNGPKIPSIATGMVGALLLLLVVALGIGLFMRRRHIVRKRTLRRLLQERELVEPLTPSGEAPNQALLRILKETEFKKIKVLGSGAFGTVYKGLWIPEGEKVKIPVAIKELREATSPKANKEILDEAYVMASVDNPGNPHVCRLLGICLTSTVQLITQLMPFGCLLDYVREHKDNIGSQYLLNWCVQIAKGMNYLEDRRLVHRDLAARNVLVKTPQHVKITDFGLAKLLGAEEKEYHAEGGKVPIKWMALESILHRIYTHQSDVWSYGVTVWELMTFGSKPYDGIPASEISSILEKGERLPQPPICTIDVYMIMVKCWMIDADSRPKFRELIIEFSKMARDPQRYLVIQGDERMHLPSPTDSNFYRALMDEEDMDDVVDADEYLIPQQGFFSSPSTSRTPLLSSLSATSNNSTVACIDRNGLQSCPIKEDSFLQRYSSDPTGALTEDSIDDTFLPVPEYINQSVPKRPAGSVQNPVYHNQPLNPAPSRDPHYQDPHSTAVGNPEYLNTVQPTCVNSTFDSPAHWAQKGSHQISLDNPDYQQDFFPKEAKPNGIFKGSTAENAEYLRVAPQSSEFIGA
The assay can be described thus: Inhibitor activity on EGFR-dependent cell growth (CellTiter-Glo, 72 h), Ba/F3 EGFR exon 20 NPG Ins. The settings on record: read-out: BaF3 NPG IC50. An outline of the steps:
as §1

In assay [4] the target is T3, EGFR exon 20 SVD Ins D770_N771 (Ba/F3 cells) (Homo sapiens, UniProt P00533, INS770SVD).
T3 construct: expressed in transfected cells; host or cells: Ba/F3 (murine pro-B cells), retroviral transduction, puromycin selection, IL3-independent pool
T3 sequence (P00533 with tags, fused parts or gaps INS770SVD): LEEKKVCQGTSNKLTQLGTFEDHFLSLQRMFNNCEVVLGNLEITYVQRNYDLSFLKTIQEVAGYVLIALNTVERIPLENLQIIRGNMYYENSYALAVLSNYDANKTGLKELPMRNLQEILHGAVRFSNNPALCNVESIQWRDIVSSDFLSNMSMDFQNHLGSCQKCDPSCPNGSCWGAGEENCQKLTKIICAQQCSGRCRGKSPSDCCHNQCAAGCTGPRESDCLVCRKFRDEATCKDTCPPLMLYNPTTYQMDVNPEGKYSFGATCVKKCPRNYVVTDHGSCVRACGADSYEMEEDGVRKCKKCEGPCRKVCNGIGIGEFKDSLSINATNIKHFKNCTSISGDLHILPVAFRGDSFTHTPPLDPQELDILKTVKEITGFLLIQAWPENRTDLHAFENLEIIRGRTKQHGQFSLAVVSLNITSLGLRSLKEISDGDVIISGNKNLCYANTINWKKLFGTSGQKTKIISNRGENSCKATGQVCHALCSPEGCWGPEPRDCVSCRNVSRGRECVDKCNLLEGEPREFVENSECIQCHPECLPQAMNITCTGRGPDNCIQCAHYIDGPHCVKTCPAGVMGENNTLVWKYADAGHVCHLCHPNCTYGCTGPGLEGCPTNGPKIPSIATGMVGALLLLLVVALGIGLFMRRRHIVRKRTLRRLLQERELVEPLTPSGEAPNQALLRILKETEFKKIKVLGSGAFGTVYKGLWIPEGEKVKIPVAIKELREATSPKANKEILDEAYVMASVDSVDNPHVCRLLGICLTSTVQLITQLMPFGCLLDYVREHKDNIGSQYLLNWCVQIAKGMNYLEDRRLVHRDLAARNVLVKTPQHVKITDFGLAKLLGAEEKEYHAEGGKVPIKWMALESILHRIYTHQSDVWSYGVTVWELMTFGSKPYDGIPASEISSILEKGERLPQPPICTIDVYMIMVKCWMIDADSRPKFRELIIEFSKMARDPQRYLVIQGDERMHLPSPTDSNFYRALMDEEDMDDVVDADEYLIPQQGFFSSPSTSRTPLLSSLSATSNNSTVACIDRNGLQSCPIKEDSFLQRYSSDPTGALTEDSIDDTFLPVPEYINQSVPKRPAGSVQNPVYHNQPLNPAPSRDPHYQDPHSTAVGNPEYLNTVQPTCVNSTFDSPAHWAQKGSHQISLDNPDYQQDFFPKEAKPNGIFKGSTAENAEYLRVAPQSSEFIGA
Briefly: Inhibitor activity on EGFR-dependent cell growth (CellTiter-Glo, 72 h), Ba/F3 EGFR exon 20 SVD Ins. Particulars: read-out: BaF3 SVD IC50. The essentials: as §1

The target in assay [5] is T4, EGFR exon 20 FQEA Ins A763_V764 (Ba/F3 cells) (Homo sapiens, UniProt P00533, INS763FQEA).
T4 construct: expressed in transfected cells; host or cells: Ba/F3 (murine pro-B cells), retroviral transduction, puromycin selection, IL3-independent pool
Briefly: Inhibitor activity on EGFR-dependent cell growth (CellTiter-Glo, 72 h), Ba/F3 EGFR exon 20 FQEA Ins. Particulars: read-out: BaF3 FQEA IC50. The essentials: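 Ba/F3 cells engineered with each EGFR variant were plated (400, 600 or 800 per well for L858R, L858R/C797S, and exon 19del/FQEA). They were exposed for 72 hours to compound serially diluted from a 10 mM DMSO stock. Remaining viable cells were quantified by CellTiter-Glo, and IC50 was curve-fitted.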

The next assay addresses T5, EGFR WT (Ba/F3 cells) (Homo sapiens, UniProt P00533).
T5 construct: expressed in transfected cells; host or cells: Ba/F3 (murine pro-B cells), retroviral transduction, puromycin selection, maintained with EGF
Briefly: Inhibitor activity on EGFR-dependent cell growth (CellTiter-Glo, 72 h), Ba/F3 EGFR WT. Particulars: read-out: BaF3 WT IC50. The essentials:
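This growth assay used Ba/F3 cells that depend on wild-type EGFR and are kept in EGF without IL3. Compounds were made up as 10 mM DMSO stocks and diluted 3-fold over 10 points. 120 nL went onto 600 cells/well. After 72 hours, 40 μL CellTiter-Glo was added and luminescence read on EnVision after 30 min.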

T5 sequence (P00533 25-1210): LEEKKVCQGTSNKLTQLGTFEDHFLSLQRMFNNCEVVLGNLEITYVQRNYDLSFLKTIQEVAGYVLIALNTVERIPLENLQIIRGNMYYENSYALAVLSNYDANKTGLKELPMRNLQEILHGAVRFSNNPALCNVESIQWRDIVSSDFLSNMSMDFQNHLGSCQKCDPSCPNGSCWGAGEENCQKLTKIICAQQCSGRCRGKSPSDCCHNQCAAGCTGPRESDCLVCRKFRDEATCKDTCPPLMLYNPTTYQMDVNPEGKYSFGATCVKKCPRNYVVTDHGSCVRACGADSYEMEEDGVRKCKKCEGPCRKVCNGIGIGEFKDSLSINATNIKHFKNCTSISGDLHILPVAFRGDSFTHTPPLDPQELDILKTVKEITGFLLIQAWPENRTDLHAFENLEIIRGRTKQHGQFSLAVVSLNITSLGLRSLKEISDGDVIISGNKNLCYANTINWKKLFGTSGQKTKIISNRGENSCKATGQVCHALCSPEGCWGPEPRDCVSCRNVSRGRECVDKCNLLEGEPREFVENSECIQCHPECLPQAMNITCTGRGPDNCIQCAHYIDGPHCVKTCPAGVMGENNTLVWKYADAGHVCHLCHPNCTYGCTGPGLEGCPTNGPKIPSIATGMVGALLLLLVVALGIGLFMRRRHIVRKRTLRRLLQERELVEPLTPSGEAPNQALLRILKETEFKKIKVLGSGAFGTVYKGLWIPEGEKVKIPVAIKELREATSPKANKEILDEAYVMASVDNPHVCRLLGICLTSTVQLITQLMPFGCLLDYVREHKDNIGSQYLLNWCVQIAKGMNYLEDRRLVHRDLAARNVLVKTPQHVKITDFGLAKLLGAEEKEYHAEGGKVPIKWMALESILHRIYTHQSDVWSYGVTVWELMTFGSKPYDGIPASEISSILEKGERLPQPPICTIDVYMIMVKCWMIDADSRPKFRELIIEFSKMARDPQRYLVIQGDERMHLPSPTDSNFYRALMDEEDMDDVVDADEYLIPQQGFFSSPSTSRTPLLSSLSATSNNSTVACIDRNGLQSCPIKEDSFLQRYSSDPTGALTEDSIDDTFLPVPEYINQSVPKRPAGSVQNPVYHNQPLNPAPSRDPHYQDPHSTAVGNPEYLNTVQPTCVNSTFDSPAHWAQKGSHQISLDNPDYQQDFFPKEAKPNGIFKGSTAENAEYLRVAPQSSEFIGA
T1 sequence (P00533 with tags, fused parts or gaps INS769ASV): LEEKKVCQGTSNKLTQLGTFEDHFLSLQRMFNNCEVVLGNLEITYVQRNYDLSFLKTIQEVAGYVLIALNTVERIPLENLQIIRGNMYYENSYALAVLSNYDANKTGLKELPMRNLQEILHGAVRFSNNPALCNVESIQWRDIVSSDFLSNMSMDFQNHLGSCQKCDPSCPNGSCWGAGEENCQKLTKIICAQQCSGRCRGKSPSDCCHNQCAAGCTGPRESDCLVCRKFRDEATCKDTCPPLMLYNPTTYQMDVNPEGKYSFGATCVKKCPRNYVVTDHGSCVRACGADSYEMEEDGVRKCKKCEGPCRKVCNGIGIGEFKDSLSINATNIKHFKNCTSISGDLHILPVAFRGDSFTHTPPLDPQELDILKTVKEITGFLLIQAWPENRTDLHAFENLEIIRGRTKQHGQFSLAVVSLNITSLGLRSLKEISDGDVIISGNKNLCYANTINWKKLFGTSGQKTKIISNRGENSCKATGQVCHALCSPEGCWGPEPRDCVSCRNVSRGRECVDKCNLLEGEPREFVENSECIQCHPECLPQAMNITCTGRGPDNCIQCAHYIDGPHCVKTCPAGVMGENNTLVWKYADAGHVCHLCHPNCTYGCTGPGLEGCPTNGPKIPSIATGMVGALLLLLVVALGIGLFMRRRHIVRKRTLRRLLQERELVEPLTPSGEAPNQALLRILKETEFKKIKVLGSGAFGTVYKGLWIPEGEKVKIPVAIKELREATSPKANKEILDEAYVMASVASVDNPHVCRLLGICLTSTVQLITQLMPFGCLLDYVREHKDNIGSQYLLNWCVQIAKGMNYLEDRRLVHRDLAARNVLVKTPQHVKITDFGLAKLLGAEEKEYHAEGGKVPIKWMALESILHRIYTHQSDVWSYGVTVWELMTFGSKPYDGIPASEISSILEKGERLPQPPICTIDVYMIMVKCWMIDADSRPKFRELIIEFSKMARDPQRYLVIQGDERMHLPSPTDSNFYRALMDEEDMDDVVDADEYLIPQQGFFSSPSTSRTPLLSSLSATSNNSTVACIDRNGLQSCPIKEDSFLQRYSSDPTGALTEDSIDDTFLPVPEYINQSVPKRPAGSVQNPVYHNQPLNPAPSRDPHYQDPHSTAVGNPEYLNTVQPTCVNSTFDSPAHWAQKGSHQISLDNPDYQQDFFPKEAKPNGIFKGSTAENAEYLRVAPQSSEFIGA

Consider `COc1c(Cl)cccc1Nc1c(-c2ccnc(NCC(F)(F)F)n2)[nH]c2c1C(=O)NCC2` [Compound 701, 3-[(3-chloro-2-methoxyphenyl)amino]-2-[2-[(2,2,2-trifluoroethyl)amino]pyrimidin-4-yl]-1H,5H,6H,7H-pyrrolo[3,2-c]pyridin-4-one], for which the IC50 was 0.1 to 1 µM in assay [1]; more than 1 µM in assay [2]; more than 1 µM in assay [3]; more than 1 µM in assay [4]; more than 1 µM in assay [5]; more than 1 µM on EGFR WT (Ba/F3 cells).
`COc1c(F)cccc1Nc1c(-c2ccnc3ccc(OC4CC4)nc23)[nH]c2c1C(=O)NCC2` [Compound 696, 2-(6-cyclopropoxy-1,5-naphthyridin-4-yl)-3-[(3-fluoro-2-methoxyphenyl)amino]-1H,5H,6H,7H-pyrrolo[3,2-c]pyridin-4-one; trifluoroacetic acid]: the IC50 (in assay [1]; in assay [2]; in assay [3]; in assay [4]; in assay [5]; at EGFR WT (Ba/F3 cells)) was less than 0.1 µM in each case.
Consider `COc1c(Cl)cccc1Nc1c(-c2ccnc3c2OCCN3)[nH]c2c1C(=O)NCC2` [compound 292], for which the IC50 is less than 0.1 µM in assay [1]; 0.1 to 1 µM in assay [2]; 0.1 to 1 µM in assay [3]; 0.1 to 1 µM in assay [4]; 0.1 to 1 µM in assay [5]; more than 1 µM at EGFR WT (Ba/F3 cells).
Regarding `COc1c(Cl)cccc1Nc1c(-c2ccnc(NC[C@H]3CCCO3)n2)[nH]c2c1C(=O)NCC2` [compound 721, (R)-3-((3-chloro-2-methoxyphenyl)amino)-2-(2-(((tetrahydrofuran-2-yl)methyl)amino)pyrimidin-4-yl)-1,5,6,7-tetrahydro-4H-pyrrolo[3,2-c]pyridin-4-one], the IC50 is 0.1 to 1 µM in assay [1]; more than 1 µM in assay [2]; more than 1 µM in assay [3]; more than 1 µM in assay [4]; more than 1 µM in assay [5]; more than 1 µM at EGFR WT (Ba/F3 cells).
For `Nc1nccc(-c2[nH]c3c(c2Nc2cccc(C(F)(F)F)c2)C(=O)NCC3)n1` [compound 199], the IC50 in assay [1] was 0.1 to 1 µM; in assay [2] it was more than 1 µM; in assay [3], 0.1 to 1 µM; in assay [4] it was more than 1 µM; in assay [5], 0.1 to 1 µM; on EGFR WT (Ba/F3 cells), more than 1 µM.
Take `COc1c(F)cccc1Nc1c(-c2ccnc3ccc(N(C)C)nc23)[nH]c2c1C(=O)NCC2` [Compound 697, 2-[6-(dimethylamino)-1,5-naphthyridin-4-yl]-3-[(3-fluoro-2-methoxyphenyl)amino]-1H,5H,6H,7H-pyrrolo[3,2-c]pyridin-4-one]: the half-inhibitory concentration (IC50) (in assay [1]; in assay [2]; in assay [3]; in assay [4]; in assay [5]; on EGFR WT (Ba/F3 cells)) was less than 0.1 µM each time.
Take `COc1c(Cl)cccc1Nc1c(-c2ccnc(NCCF)n2)[nH]c2c1C(=O)NCC2` [compound 710, 3-[(3-chloro-2-methoxyphenyl)amino]-2-[2-[(2-fluoroethyl)amino]pyrimidin-4-yl]-1H,5H,6H,7H-pyrrolo[3,2-c]pyridin-4-one]: the IC50 is less than 0.1 µM in assay [1]; 0.1 to 1 µM in assay [2]; 0.1 to 1 µM in assay [3]; 0.1 to 1 µM in assay [4]; 0.1 to 1 µM in assay [5]; more than 1 µM on EGFR WT (Ba/F3 cells).
As to `COc1c(Cl)cccc1Nc1c(-c2ccnc(NCC(F)F)n2)[nH]c2c1C(=O)NCC2` [Compound 702, 3-[(3-chloro-2-methoxyphenyl)amino]-2-[2-[(2,2-difluoroethyl)amino]pyrimidin-4-yl]-1H,5H,6H,7H-pyrrolo[3,2-c]pyridin-4-one], the IC50 in assay [1] was 0.1 to 1 µM; in assay [2] it was 0.1 to 1 µM; in assay [3], 0.1 to 1 µM; in assay [4], 0.1 to 1 µM; in assay [5], 0.1 to 1 µM; on EGFR WT (Ba/F3 cells), more than 1 µM.
Regarding `COc1c(Cl)cccc1Nc1c(-c2ccnc(NCCN(C)C)n2)[nH]c2c1C(=O)NCC2` [Compound 707, 3-((3-chloro-2-methoxyphenyl)amino)-2-(2-((2-(dimethylamino)ethyl)amino)pyrimidin-4-yl)-1,5,6,7-tetrahydro-4H-pyrrolo[3,2-c]pyridin-4-one], the IC50 (in assay [1]; in assay [2]; in assay [3]; in assay [4]; in assay [5]; on EGFR WT (Ba/F3 cells)) was more than 1 µM each time.
Turning to `COc1c(Cl)cccc1Nc1c(-c2ccnc(NC[C@@H]3CCCO3)n2)[nH]c2c1C(=O)NCC2` [compound 722, 3-[(3-chloro-2-methoxyphenyl)amino]-2-(2-[[(2S)-oxolan-2-ylmethyl]amino]pyrimidin-4-yl)-1H,5H,6H,7H-pyrrolo[3,2-c]pyridin-4-one], the IC50 in assay [1] is 0.1 to 1 µM; in assay [2] it was more than 1 µM; in assay [3] it was more than 1 µM; in assay [4] it was more than 1 µM; in assay [5], more than 1 µM; at EGFR WT (Ba/F3 cells) it was more than 1 µM.
For `COc1c(Cl)cccc1Nc1c(-c2ccnc(NC(C)C)n2)[nH]c2c1C(=O)NCC2` [compound 225], the IC50 was 0.1 to 1 µM in assay [1]; 0.1 to 1 µM in assay [2]; 0.1 to 1 µM in assay [3]; 0.1 to 1 µM in assay [4]; more than 1 µM in assay [5]; more than 1 µM on EGFR WT (Ba/F3 cells).
For the compound `COc1c(Cl)cccc1Nc1c(-c2nc(N)ncc2F)[nH]c2c1C(=O)NCC2` [compound 295], the 50% inhibitory concentration (IC50) in assay [1] is 0.1 to 1 µM; in assay [2], 0.1 to 1 µM; in assay [3], more than 1 µM; in assay [4] it was more than 1 µM; in assay [5], 0.1 to 1 µM; on EGFR WT (Ba/F3 cells) it was more than 1 µM.
With `COc1c(F)cccc1Nc1c(-c2snc3cccnc23)[nH]c2c1C(=O)NCC2` [Compound 156, 3-((3-fluoro-2-methoxyphenyl)amino)-2-(isothiazolo[4,3-b]pyridin-3-yl)-1,5,6,7-tetrahydro-4H-pyrrolo[3,2-c]pyridin-4-one], the IC50 (in assay [1]; in assay [2]; in assay [3]; in assay [4]; in assay [5]; on EGFR WT (Ba/F3 cells)) was more than 1 µM throughout.
Consider `COc1c(Cl)cccc1Nc1c(-c2ccnc(NC3CC3)n2)[nH]c2c1C(=O)NCC2` [compound 112], for which the IC50 in assay [1] was less than 0.1 µM; in assay [2], 0.1 to 1 µM; in assay [3], more than 1 µM; in assay [4], 0.1 to 1 µM; in assay [5], 0.1 to 1 µM; at EGFR WT (Ba/F3 cells) it was more than 1 µM.
For `COc1nn(C)cc1Nc1nccc(-c2[nH]c3c(c2Nc2cccc(Cl)c2OC)C(=O)NCC3)n1` [compound 219], the IC50 (in assay [1]; in assay [2]; in assay [3]; in assay [4]; in assay [5]; on EGFR WT (Ba/F3 cells)) was less than 0.1 µM throughout.
Regarding `COc1c(F)cccc1Nc1c(-c2ccnc3ccc(NC(C)(C)C)nc23)[nH]c2c1C(=O)NCC2` [Compound 694, 2-[6-(tert-butylamino)-1,5-naphthyridin-4-yl]-3-[(3-fluoro-2-methoxyphenyl)amino]-1H,5H,6H,7H-pyrrolo[3,2-c]pyridin-4-one], the IC50 (in assay [1]; in assay [2]; in assay [3]; in assay [4]; in assay [5]; on EGFR WT (Ba/F3 cells)) was less than 0.1 µM in each case.
Consider `COc1c(Cl)cccc1Nc1c(-c2ccnc3[nH]ccc23)[nH]c2c1C(=O)NCC2` [compound 218], for which the IC50 in assay [1] was less than 0.1 µM; in assay [2] it was 0.1 to 1 µM; in assay [3], more than 1 µM; in assay [4], 0.1 to 1 µM; in assay [5] it was 0.1 to 1 µM; at EGFR WT (Ba/F3 cells) it was more than 1 µM.
With `COc1c(Cl)cccc1Nc1c(-c2ncnc3[nH]ccc23)[nH]c2c1C(=O)NCC2` [compound 289], the IC50 (in assay [1]; in assay [2]; in assay [3]; in assay [4]; in assay [5]; at EGFR WT (Ba/F3 cells)) was more than 1 µM in each case.
